In patent publication US11667630B2, “Nitrogen-containing 6-membered cyclic compound” (Asahi Kasei Pharma Corporation, priority 2017, dated 2023):

Columns and labels:
[1] = target: T1, human EP3 receptor (Homo sapiens, UniProt P43115); experiment: Receptor binding test, [3H]PGE2 binding inhibition, EP3; conditions: [3H]PGE2 1.54 nmol/L, membrane fraction HTS092M, 25°C 60 minutes
T1 construct: purchased Merck Millipore HTS092M
T1 sequence (P43115 1-390): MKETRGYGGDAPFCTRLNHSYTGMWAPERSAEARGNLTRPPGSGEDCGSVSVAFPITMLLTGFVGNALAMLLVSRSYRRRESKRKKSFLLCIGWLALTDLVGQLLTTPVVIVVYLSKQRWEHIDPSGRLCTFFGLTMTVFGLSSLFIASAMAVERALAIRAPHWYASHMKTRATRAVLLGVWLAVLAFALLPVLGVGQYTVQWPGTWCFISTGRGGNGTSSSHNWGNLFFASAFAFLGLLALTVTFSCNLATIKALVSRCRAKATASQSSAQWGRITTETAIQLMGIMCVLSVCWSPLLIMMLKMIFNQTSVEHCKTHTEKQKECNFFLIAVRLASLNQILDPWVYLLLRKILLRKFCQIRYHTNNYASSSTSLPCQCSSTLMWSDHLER
Description: (§1) In order to evaluate selectivity to each EP receptor subtype, [^3H]PGE2 binding-inhibition activities of test compounds for cell membranes on which human EP2, human EP3, and human EP4 receptors were stably expressed were measured.
(§2) As the membrane fractions of the prostaglandin E receptors EP2, EP3, and EP4, 10.0 μg protein/tube each of HTS185M, HTS092M, and HTS142M of Merck Millipore were used, respectively. Each membrane fraction was incubated with a reaction mixture (250 μL/tube) containing a test compound and [3H]PGE2 at 25° C. for 60 minutes. […] After the reaction, the membrane fraction was collected on filter paper by using a cell harvester, the filter paper was transferred to a measurement vial, and the measurement was performed on a liquid scintillation counter.
(§3) The nonspecific binding was determined as binding observed in the presence of excess amount (10 μM) of unlabeled PGE2. The measurement of the [3H]PGE2 binding-inhibiting activity of a test compound was performed by adding the test compound at various concentrations. The following buffers were used for the reaction.
Buffer for EP3: 50 mmol/L Tris-HCl buffer containing 10 mmol/L MgCl2, and 1 mmol/L EDTA

[2] = target: T2, human EP4 receptor (Homo sapiens, UniProt P35408); experiment: Measurement of EP4 agonist activity (cAMP production); type: cell-based; design: expressed in transfected cells; host or cells: HEK293; conditions: cAMP production in HEK293 cells stably expressing human EP4 receptor; average values where measured two or more times
Description: In order to investigate EP4 receptor agonist activity of the compounds of the present invention, production of cAMP was measured in HEK293 cells that were made to stably express the human EP4 receptor.
By using Refseq Database, prostaglandin E receptor was searched for. As a result, gene information of human EP4 (NM_000958) receptor was obtained. On the basis of this sequence information, the human EP4 receptor gene was cloned by PCR in a conventional manner using human cDNA as the template, and HEK293 cells that were made to stably express the human EP4 receptor were established. When cryopreserved cells of this strain were thawed and used, cells subcultured three times or more within a certain period of time (about 1 to 2 weeks) by using Dulbecco's Modified Eagle's Medium (Dulbecco's Modified Eagle's Medium may be henceforth abbreviated as DMEM) containing 10% FBS, 50 units each of penicillin and streptomycin were used. The subcultured cells were inoculated in wells of a poly-D-lysine-coated 96-well plate at a density of 2×10^4 to 2.5×10^4 cells/well, and cultured for one day. The medium in the wells was removed by suction, then DMEM (80 μL) was added to each well, and incubation was performed at 37° C. for 15 minutes. […] The reaction was allowed at 37° C. for 30 minutes, then the medium was removed by suction, Assay/Lysis Buffer (100 μL) contained in cAMP Screen Kit (produced by Applied Biosystems) was added to terminate the reaction. Then, the reaction mixture was incubated at 37° C. for 30 minutes to prepare a sample for quantification of cAMP, and the amount of cAMP in the sample was quantified according to the method indicated in cAMP Screen Kit. By non-linear regression of the compound concentration and the amount of cAMP, the concentration of the compound required for increasing cAMP to 50% of the maximum increase (EC50 value) was calculated by using the Kaleida Graph.

[3] = target: T2, human EP4 receptor; experiment: Receptor binding test, [3H]PGE2 binding inhibition, EP4; design: purchased Merck Millipore HTS142M; conditions: [3H]PGE2 1.24 nmol/L, membrane fraction HTS142M, 25°C 60 minutes
Description: as §1, §2, §3
Buffer for EP4: 50 mmol/L HEPES-NaOH (pH7.4) containing 5 mmol/L MgCl2, 1 mmol/L CaCl2), and 0.2% BSA

[4] = test system: rat femur; experiment: Neo-osteogenesis action in rat femur; type: in vivo; conditions: female SD rats, one week after administration
Description: Eight weeks old female SD rats (Charles River Japan) were fixed in the side lying position under triple anesthesia (medetomidine hydrochloride, midazolam, and butorphanol tartrate). After hair of the left femoral region was shaved with a hair clipper, and disinfection treatment was performed with 70% ethanol, an in situ-solidified gel solution of a test compound, specifically, a test compound dissolved in poly(lactic-co-glycolic acid) (RESOMER RG502H, produced by Evonik Industries)/poly(lactic-co-glycolic acid)-polyethylene glycol block copolymer (5050 DLG mPEG 5000, produced by Lakeshore Biomaterials)/N-methyl-2-pyrroridone (produced by Wako) (weight ratio 47%/3%/50%), was filled in a 1-mL syringe, a 21G injection needle was attached to the syringe, and the needle was transdermally stabbed from the quadriceps to the periosteum near the center of the femoral diaphyseal. Then, 100 μg as the amount of the test compound, or 50 μL as the administration volume of the solution was injected between the quadriceps and the periosteum, and the injection needle was drawn out. To the rats of the control group, the aforementioned in situ-solidified gel solution alone was administered. One week after the administration of the drug solution, the triple anesthesia was given to the animals, and they were fixed in the supine position, and euthanized by bleeding. […], circumferential tissues such as muscles were removed, the bone mineral content of the whole femur was measured by using a bone mineral analyzer DCS-600EX (produced by ALOKA), then it was divided into three portions along the long axis, and the bone mineral content of the center part (diaphysis) was evaluated. The test was performed with the groups each consisting of 6 animals.

T2 sequence (P35408 whole entry): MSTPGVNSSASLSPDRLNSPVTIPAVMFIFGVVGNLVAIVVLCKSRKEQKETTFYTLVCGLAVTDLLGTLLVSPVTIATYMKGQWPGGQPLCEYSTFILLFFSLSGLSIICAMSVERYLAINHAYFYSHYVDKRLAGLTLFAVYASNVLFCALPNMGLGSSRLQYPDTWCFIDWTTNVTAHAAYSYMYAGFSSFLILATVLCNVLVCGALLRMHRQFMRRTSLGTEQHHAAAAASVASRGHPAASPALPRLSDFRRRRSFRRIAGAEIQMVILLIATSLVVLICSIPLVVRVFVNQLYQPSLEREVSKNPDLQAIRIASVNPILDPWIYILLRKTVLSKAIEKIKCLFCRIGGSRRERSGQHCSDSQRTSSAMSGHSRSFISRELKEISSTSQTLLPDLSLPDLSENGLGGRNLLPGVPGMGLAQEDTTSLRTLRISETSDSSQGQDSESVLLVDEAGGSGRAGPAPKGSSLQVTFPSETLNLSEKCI

IC50 [1]: > 1000 nM
EC50 [2]: 0.033 nM
IC50 [3]: 4.35 nM
Structure (SMILES): O=C(O)c1ccc(CCN2C(=O)SCCN2CC[C@@H](O)Cc2cccc(C#Cc3ccsc3)c2)s1 [Example 23, (S)-5-(2-(4-(3-Hydroxy-4-(3-(thiophen-3-ylethynyl)phenyl)butyl)-2-oxo-1,3,4-thiadiazinan-3-yl)ethyl)thiophene-2-carboxylic acid]
Bone mineral content of femur 1/3 center region (mg) Left femur (administered with compound) ([4]; 100 μg test compound in in situ-solidified gel solution injected between quadriceps and periosteum): 82.7 ± 6.7 mg
Bone mineral content of femur 1/3 center region (mg) Right femur (no administration of compound) ([4]; contralateral femur, 100 μg test compound given at left femur): 58.9 ± 2.9 mg
